These results are taken from ChEMBL document CHEMBL1201862, “PubChem BioAssay data set” (2004).

The structures appear in SMILES notation. Activity calls are given as the source filed them. A value given as a limit tells only on which side of the number the result lay.

Holding throughout (type): functional
Assay [1] addresses Dual specificity protein kinase CLK2 (Homo sapiens, UniProt P49760).
The target in assay [2] is Dual specificity mitogen-activated protein kinase kinase 1 (Homo sapiens, UniProt Q02750). Nature of the assay: Navigating the Kinome. Panel member name: MAP2K1.
Assay [3] concerns the target 5'-AMP-activated protein kinase catalytic subunit alpha-1 (Homo sapiens, UniProt Q13131).
Assay [4] addresses T1, Tyrosine-protein kinase receptor TYRO3 (Homo sapiens, UniProt Q06418).
T1 sequence (Q06418 whole entry): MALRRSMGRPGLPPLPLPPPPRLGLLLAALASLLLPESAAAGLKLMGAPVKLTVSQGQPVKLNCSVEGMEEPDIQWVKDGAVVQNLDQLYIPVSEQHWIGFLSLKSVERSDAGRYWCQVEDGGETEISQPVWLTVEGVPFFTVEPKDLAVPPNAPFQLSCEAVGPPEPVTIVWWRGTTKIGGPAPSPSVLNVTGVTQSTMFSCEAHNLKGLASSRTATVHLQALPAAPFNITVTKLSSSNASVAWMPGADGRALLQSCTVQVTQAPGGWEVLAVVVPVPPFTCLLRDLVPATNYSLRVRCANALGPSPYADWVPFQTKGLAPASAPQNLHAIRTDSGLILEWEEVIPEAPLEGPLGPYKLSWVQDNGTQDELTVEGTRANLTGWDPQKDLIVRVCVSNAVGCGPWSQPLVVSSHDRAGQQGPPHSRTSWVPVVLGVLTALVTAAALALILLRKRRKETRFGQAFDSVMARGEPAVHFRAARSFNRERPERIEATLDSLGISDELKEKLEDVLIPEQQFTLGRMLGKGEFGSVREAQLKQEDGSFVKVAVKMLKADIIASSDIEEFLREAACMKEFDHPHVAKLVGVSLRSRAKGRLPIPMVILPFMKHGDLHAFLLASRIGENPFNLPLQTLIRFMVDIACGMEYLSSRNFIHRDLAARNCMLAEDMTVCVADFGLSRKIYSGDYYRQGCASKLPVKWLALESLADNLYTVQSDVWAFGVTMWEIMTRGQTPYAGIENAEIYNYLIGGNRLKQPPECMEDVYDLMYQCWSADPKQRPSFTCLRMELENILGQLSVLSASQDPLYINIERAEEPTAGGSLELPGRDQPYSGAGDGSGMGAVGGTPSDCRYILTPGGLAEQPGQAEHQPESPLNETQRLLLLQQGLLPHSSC

Assay [5] deals with Tyrosine-protein kinase Lck (Homo sapiens, UniProt P06239).
In assay [6] the target is Death-associated protein kinase 3 (Homo sapiens, UniProt O43293).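 Further: measured as one member of a kinome-wide profiling panel.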
Assay [7] deals with Mitogen-activated protein kinase 8 (Homo sapiens, UniProt P45983).
Assay [8] deals with T2, Aurora kinase A (Homo sapiens, UniProt O14965).
T2 sequence (O14965 whole entry): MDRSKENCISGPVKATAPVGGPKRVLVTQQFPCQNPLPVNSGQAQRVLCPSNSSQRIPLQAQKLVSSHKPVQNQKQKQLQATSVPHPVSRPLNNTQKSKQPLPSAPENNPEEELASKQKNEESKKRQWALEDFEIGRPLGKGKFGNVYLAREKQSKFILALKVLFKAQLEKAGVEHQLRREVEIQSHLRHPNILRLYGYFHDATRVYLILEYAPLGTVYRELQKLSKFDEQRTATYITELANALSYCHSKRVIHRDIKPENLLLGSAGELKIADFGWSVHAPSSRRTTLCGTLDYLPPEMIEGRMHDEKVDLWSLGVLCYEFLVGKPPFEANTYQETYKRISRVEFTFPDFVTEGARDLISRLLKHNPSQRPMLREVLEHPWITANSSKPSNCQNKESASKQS

Assay [9] deals with Tyrosine-protein kinase BTK (Homo sapiens, UniProt Q06187).
In assay [10] the target is Serine/threonine-protein kinase PAK 4 (Homo sapiens, UniProt O96013).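 Further: value obtained within a kinome profiling panel in which PAK4 was one of the panel members.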
Assay [11] addresses Casein kinase I isoform alpha (Homo sapiens, UniProt P48729).
Assay [12] concerns the target Mitogen-activated protein kinase 9 (Homo sapiens, UniProt P45984).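 Further: value from a kinome panel profiling assay, MAPK9 panel entry.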
For assay [13], the target named is LIM domain kinase 1 (Homo sapiens, UniProt P53667). Nature of the assay: Navigating the Kinome. Panel member name: LIMK1.
Assay [14] addresses Serine/threonine-protein kinase TAO1 (Homo sapiens, UniProt Q7L7X3).
For assay [15], the target named is Tyrosine-protein kinase ABL1 (Homo sapiens, UniProt P00519).
For assay [16], the target named is G protein-coupled receptor kinase 5 (Homo sapiens, UniProt P34947). Nature of the assay: Navigating the Kinome. Panel member name: GPRK5.
The target of assay [17] is Dual specificity tyrosine-phosphorylation-regulated kinase 1B (Homo sapiens, UniProt Q9Y463). Nature of the assay: Navigating the Kinome. Panel member name: DYRK1B.
Assay [18] addresses T3, cAMP-dependent protein kinase catalytic subunit PRKX (Homo sapiens, UniProt P51817).
T3 sequence (P51817 whole entry): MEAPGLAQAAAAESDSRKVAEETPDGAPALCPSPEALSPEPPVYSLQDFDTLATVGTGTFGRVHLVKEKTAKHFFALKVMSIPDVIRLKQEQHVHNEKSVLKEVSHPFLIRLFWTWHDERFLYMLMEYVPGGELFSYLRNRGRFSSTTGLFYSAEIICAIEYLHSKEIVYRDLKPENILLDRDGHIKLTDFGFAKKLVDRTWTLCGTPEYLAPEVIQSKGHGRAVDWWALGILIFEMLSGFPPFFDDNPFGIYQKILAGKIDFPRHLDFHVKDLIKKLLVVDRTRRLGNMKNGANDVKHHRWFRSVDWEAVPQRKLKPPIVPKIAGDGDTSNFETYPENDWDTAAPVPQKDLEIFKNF

For assay [19], the target named is Aurora kinase B (Homo sapiens, UniProt Q96GD4).
The target in assay [20] is Cyclin-dependent kinase 7 (Homo sapiens, UniProt P50613).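 Further: value comes from a kinome-wide kinase profiling panel in which CDK7 is one member.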
Assay [21] has as its target Dual specificity protein kinase CLK4 (Homo sapiens, UniProt Q9HAZ1).
Assay [22] concerns the target Calcium/calmodulin-dependent protein kinase type II subunit alpha (Homo sapiens, UniProt Q9UQM7). Nature of the assay: Navigating the Kinome. Panel member name: CAMK2A.
Assay [23] in a line: NIH-3T3 fibroblast cytotoxicity, dose response, cytotoxicity control, cell-based, fluorescence, Alamar Blue, secondary assay (AID 2327).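 Further: NIH-3T3 mouse fibroblasts cultured with fluconazole at 8 µg/mL.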
Assay [24] is described as follows: control 3'UTR Renilla luciferase suppression, dose response, counter-screen for Shn3 inhibitor project, cell-based, Clone20-Shn3RL, cherry-picked (AID 624133). (Counterscreens check selectivity or assay interference.)

Chain of LIM domain kinase 1 (P53667 whole entry, the tested form may be a part): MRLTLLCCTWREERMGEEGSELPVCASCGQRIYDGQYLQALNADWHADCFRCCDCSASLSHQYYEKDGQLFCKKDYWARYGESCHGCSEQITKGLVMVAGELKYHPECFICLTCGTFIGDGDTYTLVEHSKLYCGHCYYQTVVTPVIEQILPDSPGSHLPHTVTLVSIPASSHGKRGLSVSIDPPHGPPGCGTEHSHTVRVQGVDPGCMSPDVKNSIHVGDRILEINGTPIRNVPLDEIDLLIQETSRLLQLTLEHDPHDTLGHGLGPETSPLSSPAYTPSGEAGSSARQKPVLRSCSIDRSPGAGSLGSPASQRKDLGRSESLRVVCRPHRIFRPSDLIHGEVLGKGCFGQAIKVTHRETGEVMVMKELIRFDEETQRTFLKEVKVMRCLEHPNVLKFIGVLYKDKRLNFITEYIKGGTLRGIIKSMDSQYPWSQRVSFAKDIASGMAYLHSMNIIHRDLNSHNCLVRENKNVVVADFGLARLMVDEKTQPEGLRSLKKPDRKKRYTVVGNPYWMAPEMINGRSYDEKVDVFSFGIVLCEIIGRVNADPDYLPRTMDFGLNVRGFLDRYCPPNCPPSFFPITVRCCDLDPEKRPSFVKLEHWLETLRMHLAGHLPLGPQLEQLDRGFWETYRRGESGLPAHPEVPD
Chain of Aurora kinase B (Q96GD4 whole entry): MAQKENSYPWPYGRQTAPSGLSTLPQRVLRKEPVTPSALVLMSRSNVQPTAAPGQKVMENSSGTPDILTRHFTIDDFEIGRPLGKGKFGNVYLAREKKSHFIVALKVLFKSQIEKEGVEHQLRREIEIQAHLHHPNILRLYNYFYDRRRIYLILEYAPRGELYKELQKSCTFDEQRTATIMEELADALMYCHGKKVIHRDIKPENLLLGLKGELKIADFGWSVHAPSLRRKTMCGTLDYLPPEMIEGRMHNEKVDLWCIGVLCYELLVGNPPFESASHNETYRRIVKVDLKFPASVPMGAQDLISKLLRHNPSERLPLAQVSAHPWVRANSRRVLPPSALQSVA
Chain of Tyrosine-protein kinase ABL1 (P00519 whole entry): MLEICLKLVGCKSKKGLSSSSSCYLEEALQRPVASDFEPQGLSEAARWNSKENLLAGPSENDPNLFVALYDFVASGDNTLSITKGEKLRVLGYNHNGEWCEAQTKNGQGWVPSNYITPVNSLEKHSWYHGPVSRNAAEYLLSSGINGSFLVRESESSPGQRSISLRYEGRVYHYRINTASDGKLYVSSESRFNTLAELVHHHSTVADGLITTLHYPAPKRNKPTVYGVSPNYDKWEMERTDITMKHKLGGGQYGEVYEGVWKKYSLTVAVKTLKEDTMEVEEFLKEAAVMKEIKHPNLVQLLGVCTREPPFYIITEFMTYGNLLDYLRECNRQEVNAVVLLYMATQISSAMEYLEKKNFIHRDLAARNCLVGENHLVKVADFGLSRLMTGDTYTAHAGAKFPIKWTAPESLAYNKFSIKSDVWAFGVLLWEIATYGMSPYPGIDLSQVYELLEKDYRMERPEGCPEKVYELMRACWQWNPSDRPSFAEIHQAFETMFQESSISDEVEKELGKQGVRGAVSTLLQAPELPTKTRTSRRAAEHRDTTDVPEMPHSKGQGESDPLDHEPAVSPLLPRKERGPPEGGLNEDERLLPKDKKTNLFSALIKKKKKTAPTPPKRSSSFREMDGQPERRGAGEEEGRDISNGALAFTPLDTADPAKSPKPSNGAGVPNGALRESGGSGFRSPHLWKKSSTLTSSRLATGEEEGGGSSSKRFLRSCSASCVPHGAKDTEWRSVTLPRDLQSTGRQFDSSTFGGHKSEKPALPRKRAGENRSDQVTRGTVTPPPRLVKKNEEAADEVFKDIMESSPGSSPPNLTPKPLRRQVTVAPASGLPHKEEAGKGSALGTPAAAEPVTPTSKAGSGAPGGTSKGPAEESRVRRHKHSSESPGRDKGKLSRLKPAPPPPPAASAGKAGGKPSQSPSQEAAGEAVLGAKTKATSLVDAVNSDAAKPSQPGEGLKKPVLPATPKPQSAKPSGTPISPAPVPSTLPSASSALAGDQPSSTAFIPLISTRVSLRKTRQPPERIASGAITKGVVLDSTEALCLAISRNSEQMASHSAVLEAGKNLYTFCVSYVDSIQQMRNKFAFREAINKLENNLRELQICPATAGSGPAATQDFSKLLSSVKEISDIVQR
Chain of Casein kinase I isoform alpha (P48729 whole entry, canonical isoform): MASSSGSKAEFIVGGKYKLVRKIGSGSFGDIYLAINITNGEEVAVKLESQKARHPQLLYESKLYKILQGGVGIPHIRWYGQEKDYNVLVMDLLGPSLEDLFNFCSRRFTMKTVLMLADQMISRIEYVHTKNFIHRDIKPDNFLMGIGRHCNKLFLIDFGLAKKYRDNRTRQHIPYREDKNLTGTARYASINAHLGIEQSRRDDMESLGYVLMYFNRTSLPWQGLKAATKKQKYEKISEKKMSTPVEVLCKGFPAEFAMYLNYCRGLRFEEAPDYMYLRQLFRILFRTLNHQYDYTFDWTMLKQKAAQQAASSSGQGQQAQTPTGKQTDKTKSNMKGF
Chain of Dual specificity protein kinase CLK4 (Q9HAZ1 whole entry): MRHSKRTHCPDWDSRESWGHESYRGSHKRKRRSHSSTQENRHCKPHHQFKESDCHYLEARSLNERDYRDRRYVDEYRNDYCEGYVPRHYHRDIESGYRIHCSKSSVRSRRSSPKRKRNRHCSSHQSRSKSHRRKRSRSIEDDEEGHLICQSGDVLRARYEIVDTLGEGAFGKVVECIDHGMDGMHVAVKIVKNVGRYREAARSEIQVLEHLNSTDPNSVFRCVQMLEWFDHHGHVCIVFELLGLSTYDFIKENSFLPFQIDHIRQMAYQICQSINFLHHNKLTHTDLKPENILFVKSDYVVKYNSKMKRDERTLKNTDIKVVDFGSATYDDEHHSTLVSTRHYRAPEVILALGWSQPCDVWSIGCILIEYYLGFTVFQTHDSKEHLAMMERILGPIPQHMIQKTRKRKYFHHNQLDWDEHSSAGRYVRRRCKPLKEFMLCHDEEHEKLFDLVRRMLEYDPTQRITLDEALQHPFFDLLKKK
Chain of Dual specificity mitogen-activated protein kinase kinase 1 (Q02750 whole entry): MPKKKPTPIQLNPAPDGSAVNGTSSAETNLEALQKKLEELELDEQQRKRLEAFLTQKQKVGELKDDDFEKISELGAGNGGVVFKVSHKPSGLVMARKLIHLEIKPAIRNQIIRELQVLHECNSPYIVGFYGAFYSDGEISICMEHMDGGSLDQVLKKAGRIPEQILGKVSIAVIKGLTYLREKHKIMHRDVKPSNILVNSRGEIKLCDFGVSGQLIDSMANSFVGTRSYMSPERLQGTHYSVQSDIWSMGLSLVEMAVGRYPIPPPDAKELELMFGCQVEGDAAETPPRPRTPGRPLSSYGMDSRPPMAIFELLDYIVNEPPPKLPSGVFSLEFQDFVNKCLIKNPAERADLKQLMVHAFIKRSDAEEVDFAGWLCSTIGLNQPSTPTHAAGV
Chain of Death-associated protein kinase 3 (O43293 whole entry): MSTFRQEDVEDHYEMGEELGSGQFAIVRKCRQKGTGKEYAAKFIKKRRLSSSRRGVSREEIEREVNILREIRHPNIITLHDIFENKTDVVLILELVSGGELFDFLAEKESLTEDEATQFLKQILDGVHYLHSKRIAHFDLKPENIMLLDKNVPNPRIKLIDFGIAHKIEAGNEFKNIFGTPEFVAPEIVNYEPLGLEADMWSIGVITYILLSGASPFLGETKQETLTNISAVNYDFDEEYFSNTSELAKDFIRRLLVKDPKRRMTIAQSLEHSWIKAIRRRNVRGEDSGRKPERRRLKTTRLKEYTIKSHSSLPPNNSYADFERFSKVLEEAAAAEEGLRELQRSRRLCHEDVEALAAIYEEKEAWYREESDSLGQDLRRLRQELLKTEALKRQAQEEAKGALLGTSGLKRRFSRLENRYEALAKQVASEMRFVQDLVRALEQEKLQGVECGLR
Chain of 5'-AMP-activated protein kinase catalytic subunit alpha-1 (Q13131 whole entry): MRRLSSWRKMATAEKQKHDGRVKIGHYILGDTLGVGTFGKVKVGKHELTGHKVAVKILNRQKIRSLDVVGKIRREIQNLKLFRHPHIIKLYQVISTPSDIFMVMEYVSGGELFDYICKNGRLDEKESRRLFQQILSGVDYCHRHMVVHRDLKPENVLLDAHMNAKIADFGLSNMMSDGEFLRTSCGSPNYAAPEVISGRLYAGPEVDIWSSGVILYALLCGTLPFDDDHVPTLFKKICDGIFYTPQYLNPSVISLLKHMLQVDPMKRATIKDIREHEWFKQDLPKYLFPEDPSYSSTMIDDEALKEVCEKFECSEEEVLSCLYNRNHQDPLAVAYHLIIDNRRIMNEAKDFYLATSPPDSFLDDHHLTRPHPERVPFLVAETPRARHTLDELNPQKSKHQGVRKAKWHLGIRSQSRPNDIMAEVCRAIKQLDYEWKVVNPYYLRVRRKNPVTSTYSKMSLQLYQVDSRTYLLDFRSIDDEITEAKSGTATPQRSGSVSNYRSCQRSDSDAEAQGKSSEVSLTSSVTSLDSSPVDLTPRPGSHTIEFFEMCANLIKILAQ
Chain of Calcium/calmodulin-dependent protein kinase type II subunit alpha (Q9UQM7 whole entry): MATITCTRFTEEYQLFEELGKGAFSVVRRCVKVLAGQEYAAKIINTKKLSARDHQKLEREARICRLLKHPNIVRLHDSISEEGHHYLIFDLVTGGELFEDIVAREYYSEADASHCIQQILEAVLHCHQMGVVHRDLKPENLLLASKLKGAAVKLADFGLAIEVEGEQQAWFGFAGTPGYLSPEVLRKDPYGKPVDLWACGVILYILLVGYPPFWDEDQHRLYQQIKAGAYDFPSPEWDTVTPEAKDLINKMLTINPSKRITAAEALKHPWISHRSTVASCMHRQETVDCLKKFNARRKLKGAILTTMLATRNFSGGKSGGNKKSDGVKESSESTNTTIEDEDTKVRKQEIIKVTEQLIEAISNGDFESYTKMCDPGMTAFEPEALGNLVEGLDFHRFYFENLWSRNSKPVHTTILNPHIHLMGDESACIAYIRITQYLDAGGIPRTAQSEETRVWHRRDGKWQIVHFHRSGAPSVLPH

By Ki is commonly meant the equilibrium dissociation constant of an inhibitor or competing ligand from its target. On to `O=C(Nc1cccc(C2Nc3ccc4ccccc4c3C3C=CCC32)c1)c1ccc(F)cc1` (stereo not drawn), for which the Ki was > 3.98 µM (inactive) in assay [1]; 1 µM (active) in [2]; 3.16 µM (active) in [3]; 1.26 µM (active) in [4]; > 6.31 µM (inactive) in assay [5]; > 5.01 µM (inactive) in [6]. Besides, the Ki in [7] is 3.16 µM (active); in assay [8], 0.501 µM (active); in assay [9] it was 5.01 µM (active); in assay [10] it was > 5.01 µM (inactive); in assay [11] it was 3.98 µM (active); in [12] it was > 3.98 µM (inactive). In addition, the inhibition constant Ki in assay [13] was 0.2 µM (active); in assay [14] it was > 6.31 µM (inactive); in assay [15] it was 1.26 µM (active); in assay [16], 1.26 µM (active); in assay [17] it was > 2.51 µM (inactive); in assay [18], > 3.16 µM (inactive). Also, the inhibition constant (Ki) in assay [19] was 1 µM (active); in [20], 1.26 µM (active); in assay [21], 1 µM (active); in assay [22] it was > 3.98 µM (inactive).

As usually defined, the EC50 is the concentration giving half of the maximal effect. In general, AC50 refers to the concentration giving half of the maximal activity seen. Turning to `Cc1ccc(C(=O)OCn2ncc(Cl)c(Cl)c2=O)cc1`, the 50% effective concentration (EC50) in assay [23] is 3.07 µM (inconclusive). Besides, the AC50 in assay [24] was 3.15 µM (active).

Regarding `Cc1ccc(-c2cc(-c3cc(Br)ccc3O)[nH]c(=O)c2C#N)s1`, the Ki in [1] is > 3.98 µM (inactive); in [2], > 3.16 µM (inactive); in [3], 0.794 µM (active); in [4], 0.794 µM (active); in assay [5], > 6.31 µM (inactive); in assay [6] it was > 5.01 µM (inactive). In addition, the Ki in [7] was 0.794 µM (active); in [8] it was 1.58 µM (active); in assay [9] it was > 6.31 µM (inactive); in assay [10] it was 2 µM (active); in assay [11] it was > 3.98 µM (inactive); in assay [12], > 3.98 µM (inactive). The Ki in assay [13] was > 3.16 µM (inactive); in [14], > 6.31 µM (inactive); in assay [15], > 2.51 µM (inactive); in [16] it was 1 µM (active); in [17], 0.794 µM (active); in assay [18], > 3.16 µM (inactive). Also, the inhibition constant Ki is 0.794 µM (active) in assay [19], > 3.98 µM (inactive) in [20], > 2.51 µM (inactive) in assay [21] and 1.58 µM (active) in [22].

With `CCCC(=O)NC(c1cccs1)c1cc(Cl)c2cccnc2c1O` (stereo not drawn), in assay [23], the EC50 was > 150 µM (inactive). Moreover, the AC50 in [24] is 4.36 µM (active).
